Tested on: Genes belonging to other category
Assay: DNA chip mRNA expression in yeast, genes belonging to other category (Table 9)
Assay type: cell-based, Saccharomyces cerevisiae S288C
Procedure, shortened: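 Measured as treated-to-untreated fluorescence ratio on a full-genome yeast DNA chip. Cells (S288C, YPD, 25° C.) were exposed in log phase for two hours to one chemical, dosed to curb growth without killing.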

## COc1cc(CNC(=O)CCCCC=CC(C)C)ccc1O [(12), 8-methyl-N-vanillyl-6-nonenamide]
Yeast gene YJL116C
  The level of expressed mRNA in the presence of chemical substance/The level of expressed mRNA in the absence of chemical substance: 1.1
Yeast gene YJL164C
  The level of expressed mRNA in the presence of chemical substance/The level of expressed mRNA in the absence of chemical substance: 1.0
Yeast gene YJL210W
  The level of expressed mRNA in the presence of chemical substance/The level of expressed mRNA in the absence of chemical substance: 1.0
Yeast gene YJR004C
  The level of expressed mRNA in the presence of chemical substance/The level of expressed mRNA in the absence of chemical substance: 0.8
Yeast gene YJR049C
  The level of expressed mRNA in the presence of chemical substance/The level of expressed mRNA in the absence of chemical substance: 1.0
Yeast gene YJR086W
  The level of expressed mRNA in the presence of chemical substance/The level of expressed mRNA in the absence of chemical substance: 0.8
Yeast gene YJR091C
  The level of expressed mRNA in the presence of chemical substance/The level of expressed mRNA in the absence of chemical substance: 0.8
Yeast gene YKL008C
  The level of expressed mRNA in the presence of chemical substance/The level of expressed mRNA in the absence of chemical substance: 1.5
Yeast gene YKL013C
  The level of expressed mRNA in the presence of chemical substance/The level of expressed mRNA in the absence of chemical substance: 0.7
Yeast gene YKL039W
  The level of expressed mRNA in the presence of chemical substance/The level of expressed mRNA in the absence of chemical substance: 0.9
Yeast gene YKL041W
  The level of expressed mRNA in the presence of chemical substance/The level of expressed mRNA in the absence of chemical substance: 0.8
Yeast gene YKL093W
  The level of expressed mRNA in the presence of chemical substance/The level of expressed mRNA in the absence of chemical substance: 0.9
Yeast gene YKL096W
  The level of expressed mRNA in the presence of chemical substance/The level of expressed mRNA in the absence of chemical substance: 0.3
Yeast gene YKL097W-A
  The level of expressed mRNA in the presence of chemical substance/The level of expressed mRNA in the absence of chemical substance: 0.7
Yeast gene YKL117W
  The level of expressed mRNA in the presence of chemical substance/The level of expressed mRNA in the absence of chemical substance: 1.0
Yeast gene YKL139W
  The level of expressed mRNA in the presence of chemical substance/The level of expressed mRNA in the absence of chemical substance: 0.8
Yeast gene YKL165C
  The level of expressed mRNA in the presence of chemical substance/The level of expressed mRNA in the absence of chemical substance: 2.4
Yeast gene YKL193C
  The level of expressed mRNA in the presence of chemical substance/The level of expressed mRNA in the absence of chemical substance: 0.9
Yeast gene YKR014C
  The level of expressed mRNA in the presence of chemical substance/The level of expressed mRNA in the absence of chemical substance: 1.1
Yeast gene YKR102W
  The level of expressed mRNA in the presence of chemical substance/The level of expressed mRNA in the absence of chemical substance: 0.8
Yeast gene YLR078C
  The level of expressed mRNA in the presence of chemical substance/The level of expressed mRNA in the absence of chemical substance: 1.0
Yeast gene YLR080W
  The level of expressed mRNA in the presence of chemical substance/The level of expressed mRNA in the absence of chemical substance: 0.8
Yeast gene YLR093C
  The level of expressed mRNA in the presence of chemical substance/The level of expressed mRNA in the absence of chemical substance: 1.0
Yeast gene YLR118C
  The level of expressed mRNA in the presence of chemical substance/The level of expressed mRNA in the absence of chemical substance: 1.0
Yeast gene YLR120C
  The level of expressed mRNA in the presence of chemical substance/The level of expressed mRNA in the absence of chemical substance: 1.6
Yeast gene YLR136C
  The level of expressed mRNA in the presence of chemical substance/The level of expressed mRNA in the absence of chemical substance: 1.3
Yeast gene YLR178C
  The level of expressed mRNA in the presence of chemical substance/The level of expressed mRNA in the absence of chemical substance: 2.2
Yeast gene YLR250W
  The level of expressed mRNA in the presence of chemical substance/The level of expressed mRNA in the absence of chemical substance: 1.0
Yeast gene YLR251W
  The level of expressed mRNA in the presence of chemical substance/The level of expressed mRNA in the absence of chemical substance: 0.8
Yeast gene YLR327C
  The level of expressed mRNA in the presence of chemical substance/The level of expressed mRNA in the absence of chemical substance: 1.4
Yeast gene YLR340W
  The level of expressed mRNA in the presence of chemical substance/The level of expressed mRNA in the absence of chemical substance: 0.9
Yeast gene YLR356W
  The level of expressed mRNA in the presence of chemical substance/The level of expressed mRNA in the absence of chemical substance: 1.5
Yeast gene YLR362W
  The level of expressed mRNA in the presence of chemical substance/The level of expressed mRNA in the absence of chemical substance: 0.8
Yeast gene YLR391W
  The level of expressed mRNA in the presence of chemical substance/The level of expressed mRNA in the absence of chemical substance: 1.0
Yeast gene YLR429W
  The level of expressed mRNA in the presence of chemical substance/The level of expressed mRNA in the absence of chemical substance: 1.1
Yeast gene YMR004W
  The level of expressed mRNA in the presence of chemical substance/The level of expressed mRNA in the absence of chemical substance: 1.0
Yeast gene YMR053C
  The level of expressed mRNA in the presence of chemical substance/The level of expressed mRNA in the absence of chemical substance: 0.9
Yeast gene YMR091C
  The level of expressed mRNA in the presence of chemical substance/The level of expressed mRNA in the absence of chemical substance: 0.8
Yeast gene YMR092C
  The level of expressed mRNA in the presence of chemical substance/The level of expressed mRNA in the absence of chemical substance: 0.9
Yeast gene YMR094W
  The level of expressed mRNA in the presence of chemical substance/The level of expressed mRNA in the absence of chemical substance: 0.9
Yeast gene YMR104C
  The level of expressed mRNA in the presence of chemical substance/The level of expressed mRNA in the absence of chemical substance: 1.0
Yeast gene YMR219W
  The level of expressed mRNA in the presence of chemical substance/The level of expressed mRNA in the absence of chemical substance: 1.5
Yeast gene YMR226C
  The level of expressed mRNA in the presence of chemical substance/The level of expressed mRNA in the absence of chemical substance: 1.1
Yeast gene YMR238W
  The level of expressed mRNA in the presence of chemical substance/The level of expressed mRNA in the absence of chemical substance: 1.0
Yeast gene YMR275C
  The level of expressed mRNA in the presence of chemical substance/The level of expressed mRNA in the absence of chemical substance: 0.7
Yeast gene YMR276W
  The level of expressed mRNA in the presence of chemical substance/The level of expressed mRNA in the absence of chemical substance: 1.2
Yeast gene YMR314W
  The level of expressed mRNA in the presence of chemical substance/The level of expressed mRNA in the absence of chemical substance: 1.0
Yeast gene YNL006W
  The level of expressed mRNA in the presence of chemical substance/The level of expressed mRNA in the absence of chemical substance: 0.7
Yeast gene YNL007C
  The level of expressed mRNA in the presence of chemical substance/The level of expressed mRNA in the absence of chemical substance: 0.7
Yeast gene YNL015W
  The level of expressed mRNA in the presence of chemical substance/The level of expressed mRNA in the absence of chemical substance: 2.8
Yeast gene YNL093W
  The level of expressed mRNA in the presence of chemical substance/The level of expressed mRNA in the absence of chemical substance: 1.1
Yeast gene YNL147W
  The level of expressed mRNA in the presence of chemical substance/The level of expressed mRNA in the absence of chemical substance: 0.8
Yeast gene YNL333W
  The level of expressed mRNA in the presence of chemical substance/The level of expressed mRNA in the absence of chemical substance: 1.0
Yeast gene YNL335W
  The level of expressed mRNA in the presence of chemical substance/The level of expressed mRNA in the absence of chemical substance: 0.8
Yeast gene YNR010W
  The level of expressed mRNA in the presence of chemical substance/The level of expressed mRNA in the absence of chemical substance: 0.8
Yeast gene YNR037C
  The level of expressed mRNA in the presence of chemical substance/The level of expressed mRNA in the absence of chemical substance: 0.7
Yeast gene YNR069C
  The level of expressed mRNA in the presence of chemical substance/The level of expressed mRNA in the absence of chemical substance: 1.2
Yeast gene YOL013C
  The level of expressed mRNA in the presence of chemical substance/The level of expressed mRNA in the absence of chemical substance: 1.1
Yeast gene YOL164W
  The level of expressed mRNA in the presence of chemical substance/The level of expressed mRNA in the absence of chemical substance: 1.1
Yeast gene YOR036W
  The level of expressed mRNA in the presence of chemical substance/The level of expressed mRNA in the absence of chemical substance: 1.2
Yeast gene YOR117W
  The level of expressed mRNA in the presence of chemical substance/The level of expressed mRNA in the absence of chemical substance: 2.5
Yeast gene YOR124C
  The level of expressed mRNA in the presence of chemical substance/The level of expressed mRNA in the absence of chemical substance: 0.9
Yeast gene YOR132W
  The level of expressed mRNA in the presence of chemical substance/The level of expressed mRNA in the absence of chemical substance: 0.7
Yeast gene YOR157C
  The level of expressed mRNA in the presence of chemical substance/The level of expressed mRNA in the absence of chemical substance: 1.3
Yeast gene YOR181W
  The level of expressed mRNA in the presence of chemical substance/The level of expressed mRNA in the absence of chemical substance: 0.8
Yeast gene YOR185C
  The level of expressed mRNA in the presence of chemical substance/The level of expressed mRNA in the absence of chemical substance: 1.5
Yeast gene YOR198C
  The level of expressed mRNA in the presence of chemical substance/The level of expressed mRNA in the absence of chemical substance: 1.5
Yeast gene YOR229W
  The level of expressed mRNA in the presence of chemical substance/The level of expressed mRNA in the absence of chemical substance: 0.8
Yeast gene YOR259C
  The level of expressed mRNA in the presence of chemical substance/The level of expressed mRNA in the absence of chemical substance: 0.8
Yeast gene YOR261C
  The level of expressed mRNA in the presence of chemical substance/The level of expressed mRNA in the absence of chemical substance: 0.9
Yeast gene YOR265W
  The level of expressed mRNA in the presence of chemical substance/The level of expressed mRNA in the absence of chemical substance: 0.8
Yeast gene YOR288C
  The level of expressed mRNA in the presence of chemical substance/The level of expressed mRNA in the absence of chemical substance: 1.4
Yeast gene YOR355W
  The level of expressed mRNA in the presence of chemical substance/The level of expressed mRNA in the absence of chemical substance: 0.9
Yeast gene YOR383C
  The level of expressed mRNA in the presence of chemical substance/The level of expressed mRNA in the absence of chemical substance: 1.1
Yeast gene YPL089C
  The level of expressed mRNA in the presence of chemical substance/The level of expressed mRNA in the absence of chemical substance: 0.7
Yeast gene YPL109C
  The level of expressed mRNA in the presence of chemical substance/The level of expressed mRNA in the absence of chemical substance: 0.9
Yeast gene YPL149W
  The level of expressed mRNA in the presence of chemical substance/The level of expressed mRNA in the absence of chemical substance: 0.9
Yeast gene YPL154C
  The level of expressed mRNA in the presence of chemical substance/The level of expressed mRNA in the absence of chemical substance: 1.5
Yeast gene YPL230W
  The level of expressed mRNA in the presence of chemical substance/The level of expressed mRNA in the absence of chemical substance: 1.0
Yeast gene YPR066W
  The level of expressed mRNA in the presence of chemical substance/The level of expressed mRNA in the absence of chemical substance: 0.8
Yeast gene YPR103W
  The level of expressed mRNA in the presence of chemical substance/The level of expressed mRNA in the absence of chemical substance: 1.2
Yeast gene YPR108W
  The level of expressed mRNA in the presence of chemical substance/The level of expressed mRNA in the absence of chemical substance: 1.0
Yeast gene YPR140W
  The level of expressed mRNA in the presence of chemical substance/The level of expressed mRNA in the absence of chemical substance: 0.8
Yeast gene YPR185W
  The level of expressed mRNA in the presence of chemical substance/The level of expressed mRNA in the absence of chemical substance: 0.8

Source: patent US8192962B2, “Processes for detecting toxic substances” (Daikin Industries, Ltd., priority 2001, dated 2012)
